In ChEMBL document CHEMBL1828590 (J Med Chem, 2011):

Experiments:
COLO 205 = test: Antiproliferative activity against human COLO205 cells after 96 hrs by celltiter 96 assay; type: functional, cell-based; details: COLO 205, 96 h
A2780 = test: Antiproliferative activity against human A2780 cells after 96 hrs by celltiter 96 assay; type: functional, cell-based; details: A2780, 96 h
HCT-116 = test: Antiproliferative activity against human HCT116 cells after 96 hrs by celltiter 96 assay; type: functional, cell-based; details: HCT-116, 96 h
PC-3 = test: Antiproliferative activity against human PC3 cells after 96 hrs by celltiter 96 assay; type: functional, cell-based; details: PC-3, 96 h
Histone deacetylase 1 [1] = molecular target: T1, Histone deacetylase 1 (Homo sapiens, UniProt Q13547)
Description: Competitive inhibition of HDAC1 using KI-104 as substrate by fluorescence assay

Histone deacetylase 3 = Histone deacetylase 3 (Homo sapiens, UniProt O15379)
Description: Competitive inhibition of HDAC3 using KI-104 as substrate by fluorescence assay

Histone deacetylase 4 = Histone deacetylase 4 (Homo sapiens, UniProt P56524)
Description: Competitive inhibition of HDAC4 using KI-104 as substrate by fluorescence assay

Histone deacetylase 5 = Histone deacetylase 5 (Homo sapiens, UniProt Q9UQL6)
Description: Competitive inhibition of HDAC5 using KI-104 as substrate by fluorescence assay

[2] = molecular target: T2, Protein deacetylase HDAC6 (Homo sapiens, UniProt Q9UBN7)
T2 sequence (Q9UBN7 whole entry): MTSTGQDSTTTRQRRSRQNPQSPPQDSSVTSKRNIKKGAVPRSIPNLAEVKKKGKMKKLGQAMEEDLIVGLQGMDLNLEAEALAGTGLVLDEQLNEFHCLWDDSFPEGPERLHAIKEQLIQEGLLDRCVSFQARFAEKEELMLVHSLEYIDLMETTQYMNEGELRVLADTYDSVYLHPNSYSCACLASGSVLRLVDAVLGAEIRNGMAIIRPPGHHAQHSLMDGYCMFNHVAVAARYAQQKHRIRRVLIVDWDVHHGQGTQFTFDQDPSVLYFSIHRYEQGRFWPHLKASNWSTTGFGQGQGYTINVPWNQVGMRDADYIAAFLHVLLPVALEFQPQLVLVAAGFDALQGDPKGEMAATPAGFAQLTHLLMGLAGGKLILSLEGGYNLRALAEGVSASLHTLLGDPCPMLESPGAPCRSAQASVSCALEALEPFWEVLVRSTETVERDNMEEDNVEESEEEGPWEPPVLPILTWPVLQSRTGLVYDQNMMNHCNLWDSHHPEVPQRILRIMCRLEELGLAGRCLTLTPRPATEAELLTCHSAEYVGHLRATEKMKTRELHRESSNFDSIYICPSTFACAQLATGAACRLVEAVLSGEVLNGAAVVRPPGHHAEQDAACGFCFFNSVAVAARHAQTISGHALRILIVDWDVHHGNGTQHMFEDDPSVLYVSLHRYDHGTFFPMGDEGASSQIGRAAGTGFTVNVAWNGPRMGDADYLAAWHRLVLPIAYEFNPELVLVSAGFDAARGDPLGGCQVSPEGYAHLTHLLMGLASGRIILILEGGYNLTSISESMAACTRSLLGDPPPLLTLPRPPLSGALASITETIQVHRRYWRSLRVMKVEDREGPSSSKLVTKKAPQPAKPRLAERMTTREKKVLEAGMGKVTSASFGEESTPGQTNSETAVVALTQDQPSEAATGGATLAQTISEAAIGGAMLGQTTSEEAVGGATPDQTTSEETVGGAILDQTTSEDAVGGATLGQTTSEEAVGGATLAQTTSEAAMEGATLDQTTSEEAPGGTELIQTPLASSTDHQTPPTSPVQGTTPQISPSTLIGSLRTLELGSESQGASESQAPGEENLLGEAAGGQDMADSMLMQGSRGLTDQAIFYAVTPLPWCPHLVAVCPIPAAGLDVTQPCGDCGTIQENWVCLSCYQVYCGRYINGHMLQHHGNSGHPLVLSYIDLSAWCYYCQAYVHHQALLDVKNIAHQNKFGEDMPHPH
Description: Competitive inhibition of HDAC6 using KI-104 as substrate by fluorescence assay

Histone deacetylase 8 = molecular target: T3, Histone deacetylase 8 (Homo sapiens, UniProt Q9BY41)
T3 sequence (Q9BY41 whole entry): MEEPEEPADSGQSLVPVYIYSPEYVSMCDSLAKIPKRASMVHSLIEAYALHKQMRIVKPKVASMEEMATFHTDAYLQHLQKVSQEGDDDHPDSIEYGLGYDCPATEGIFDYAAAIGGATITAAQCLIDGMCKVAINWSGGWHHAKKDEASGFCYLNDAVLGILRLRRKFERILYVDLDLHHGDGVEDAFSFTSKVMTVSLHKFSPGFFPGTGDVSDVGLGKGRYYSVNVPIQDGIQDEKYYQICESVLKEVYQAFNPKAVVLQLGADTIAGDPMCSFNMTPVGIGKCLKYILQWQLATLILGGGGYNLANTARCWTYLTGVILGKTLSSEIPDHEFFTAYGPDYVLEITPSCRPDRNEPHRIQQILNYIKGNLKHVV
Description: Competitive inhibition of HDAC8 using KI-104 as substrate by fluorescence assay

Histone deacetylase 9 = Histone deacetylase 9 (Homo sapiens, UniProt Q9UKV0)
Description: Competitive inhibition of HDAC9 using KI-104 as substrate by fluorescence assay

[3] = molecular target: T4, Polyamine deacetylase HDAC10 (Homo sapiens, UniProt Q969S8)
T4 sequence (Q969S8 whole entry): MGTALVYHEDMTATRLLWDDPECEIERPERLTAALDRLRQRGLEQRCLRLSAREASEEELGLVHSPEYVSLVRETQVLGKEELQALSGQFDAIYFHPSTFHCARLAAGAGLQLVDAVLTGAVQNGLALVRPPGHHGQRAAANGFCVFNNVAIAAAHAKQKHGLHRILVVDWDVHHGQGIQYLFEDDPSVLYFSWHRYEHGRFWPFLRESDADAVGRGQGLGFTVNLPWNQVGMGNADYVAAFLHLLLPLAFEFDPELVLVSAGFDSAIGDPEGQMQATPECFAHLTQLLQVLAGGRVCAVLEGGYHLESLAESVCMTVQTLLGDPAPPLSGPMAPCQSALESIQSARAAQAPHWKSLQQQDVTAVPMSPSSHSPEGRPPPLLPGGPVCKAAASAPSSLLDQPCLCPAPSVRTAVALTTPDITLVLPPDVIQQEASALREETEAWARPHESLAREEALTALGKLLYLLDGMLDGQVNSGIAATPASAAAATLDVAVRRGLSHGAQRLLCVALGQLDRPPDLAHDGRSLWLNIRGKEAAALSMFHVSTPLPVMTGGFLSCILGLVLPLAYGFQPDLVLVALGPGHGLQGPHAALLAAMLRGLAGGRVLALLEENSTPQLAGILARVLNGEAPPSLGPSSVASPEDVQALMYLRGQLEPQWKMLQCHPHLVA
Description: Competitive inhibition of HDAC10 using KI-104 as substrate by fluorescence assay

Histone deacetylase 11 = molecular target: T5, Histone deacetylase 11 (Homo sapiens, UniProt Q96DB2)
T5 sequence (Q96DB2 whole entry): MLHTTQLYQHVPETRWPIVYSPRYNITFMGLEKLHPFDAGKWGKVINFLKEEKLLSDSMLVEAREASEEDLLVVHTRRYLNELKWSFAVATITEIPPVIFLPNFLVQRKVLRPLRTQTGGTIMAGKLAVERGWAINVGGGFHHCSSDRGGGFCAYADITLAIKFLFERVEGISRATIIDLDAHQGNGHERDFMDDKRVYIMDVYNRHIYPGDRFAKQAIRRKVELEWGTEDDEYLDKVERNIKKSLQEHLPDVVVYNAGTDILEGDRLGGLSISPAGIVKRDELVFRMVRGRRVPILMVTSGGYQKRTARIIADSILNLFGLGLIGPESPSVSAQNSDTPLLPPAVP
Description: Competitive inhibition of HDAC11 using KI-104 as substrate by fluorescence assay

Histone deacetylase 1 [4] = molecular target: T1, Histone deacetylase 1; remark: listed apart in the source
Description: Inhibition of full length recombinant HDAC1 using Fluor de Lys as substrate by fluorescence assay

Histone deacetylase 2 = Histone deacetylase 2 (Homo sapiens, UniProt Q92769)
Description: Competitive inhibition of HDAC2 using KI-104 as substrate by fluorescence assay

[5] = Half life in human liver microsomes; type: ADME, Microsome
[6] = Half life in mouse liver microsomes; type: ADME, Microsome; details: liver microsomes

T1 sequence (Q13547 whole entry): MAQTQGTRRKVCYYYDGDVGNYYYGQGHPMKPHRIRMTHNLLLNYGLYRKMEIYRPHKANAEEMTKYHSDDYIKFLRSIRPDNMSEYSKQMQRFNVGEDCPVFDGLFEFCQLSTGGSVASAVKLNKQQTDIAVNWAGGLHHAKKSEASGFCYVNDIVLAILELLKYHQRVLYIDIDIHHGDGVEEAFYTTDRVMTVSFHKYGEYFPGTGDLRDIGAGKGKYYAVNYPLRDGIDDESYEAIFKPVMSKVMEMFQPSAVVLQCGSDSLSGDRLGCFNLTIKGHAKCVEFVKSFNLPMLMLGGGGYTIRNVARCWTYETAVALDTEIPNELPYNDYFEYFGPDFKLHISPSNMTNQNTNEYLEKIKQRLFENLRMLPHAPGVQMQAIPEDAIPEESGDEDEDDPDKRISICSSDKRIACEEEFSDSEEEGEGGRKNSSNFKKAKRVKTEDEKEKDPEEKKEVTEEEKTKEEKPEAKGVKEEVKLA
Histone deacetylase 4, sequence (P56524 whole entry): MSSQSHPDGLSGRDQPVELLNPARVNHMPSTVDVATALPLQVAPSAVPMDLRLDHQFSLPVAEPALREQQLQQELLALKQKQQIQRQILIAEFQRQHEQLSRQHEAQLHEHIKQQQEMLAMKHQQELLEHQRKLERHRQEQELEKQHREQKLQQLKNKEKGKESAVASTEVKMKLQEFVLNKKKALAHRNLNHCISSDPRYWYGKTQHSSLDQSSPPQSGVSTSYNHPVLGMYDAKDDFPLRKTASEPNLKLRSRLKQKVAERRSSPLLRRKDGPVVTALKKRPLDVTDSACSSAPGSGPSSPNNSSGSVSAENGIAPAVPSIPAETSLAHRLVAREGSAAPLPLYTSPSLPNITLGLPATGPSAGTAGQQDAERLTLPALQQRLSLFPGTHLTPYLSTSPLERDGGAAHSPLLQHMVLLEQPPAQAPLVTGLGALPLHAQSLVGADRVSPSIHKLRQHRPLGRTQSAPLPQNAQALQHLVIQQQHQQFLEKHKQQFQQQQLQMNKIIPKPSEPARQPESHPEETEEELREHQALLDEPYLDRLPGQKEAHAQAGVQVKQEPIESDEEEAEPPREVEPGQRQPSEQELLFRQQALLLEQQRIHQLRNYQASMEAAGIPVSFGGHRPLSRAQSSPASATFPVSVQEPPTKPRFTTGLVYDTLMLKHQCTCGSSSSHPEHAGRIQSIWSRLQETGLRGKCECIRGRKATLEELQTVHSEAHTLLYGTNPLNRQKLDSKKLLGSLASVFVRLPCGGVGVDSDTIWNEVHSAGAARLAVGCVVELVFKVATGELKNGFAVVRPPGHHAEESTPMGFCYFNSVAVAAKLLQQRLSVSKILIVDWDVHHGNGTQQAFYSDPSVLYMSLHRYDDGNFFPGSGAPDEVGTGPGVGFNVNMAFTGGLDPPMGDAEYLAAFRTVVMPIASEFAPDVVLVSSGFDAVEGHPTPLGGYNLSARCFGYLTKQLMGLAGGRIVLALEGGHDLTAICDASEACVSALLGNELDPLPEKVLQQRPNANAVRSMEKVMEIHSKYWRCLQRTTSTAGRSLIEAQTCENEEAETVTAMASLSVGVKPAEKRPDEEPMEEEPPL
Histone deacetylase 3, sequence (O15379 whole entry): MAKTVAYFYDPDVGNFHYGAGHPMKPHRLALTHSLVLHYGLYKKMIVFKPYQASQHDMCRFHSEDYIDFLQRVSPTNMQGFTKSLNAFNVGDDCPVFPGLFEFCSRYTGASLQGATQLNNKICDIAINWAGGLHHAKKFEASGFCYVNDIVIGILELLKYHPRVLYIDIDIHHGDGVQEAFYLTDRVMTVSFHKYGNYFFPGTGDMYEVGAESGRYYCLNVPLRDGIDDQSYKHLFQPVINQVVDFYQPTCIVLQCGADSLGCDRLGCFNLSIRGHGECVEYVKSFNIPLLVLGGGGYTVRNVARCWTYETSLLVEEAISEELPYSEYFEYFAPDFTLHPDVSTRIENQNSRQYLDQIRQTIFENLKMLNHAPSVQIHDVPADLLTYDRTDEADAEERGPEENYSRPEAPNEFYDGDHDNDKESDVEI
Histone deacetylase 2, sequence (Q92769 whole entry): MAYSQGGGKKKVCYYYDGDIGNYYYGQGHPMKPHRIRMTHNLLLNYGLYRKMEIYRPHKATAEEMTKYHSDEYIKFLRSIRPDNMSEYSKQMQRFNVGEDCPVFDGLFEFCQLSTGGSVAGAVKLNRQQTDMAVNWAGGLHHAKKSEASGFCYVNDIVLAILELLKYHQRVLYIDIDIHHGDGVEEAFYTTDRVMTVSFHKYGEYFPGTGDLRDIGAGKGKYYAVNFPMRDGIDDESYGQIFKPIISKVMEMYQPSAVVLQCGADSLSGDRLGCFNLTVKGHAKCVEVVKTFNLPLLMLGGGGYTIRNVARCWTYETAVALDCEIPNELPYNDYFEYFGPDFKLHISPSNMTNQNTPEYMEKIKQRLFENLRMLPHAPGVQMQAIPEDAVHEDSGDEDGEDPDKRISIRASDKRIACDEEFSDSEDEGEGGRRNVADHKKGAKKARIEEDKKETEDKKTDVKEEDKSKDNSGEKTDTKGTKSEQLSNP
Histone deacetylase 5, sequence (Q9UQL6 whole entry): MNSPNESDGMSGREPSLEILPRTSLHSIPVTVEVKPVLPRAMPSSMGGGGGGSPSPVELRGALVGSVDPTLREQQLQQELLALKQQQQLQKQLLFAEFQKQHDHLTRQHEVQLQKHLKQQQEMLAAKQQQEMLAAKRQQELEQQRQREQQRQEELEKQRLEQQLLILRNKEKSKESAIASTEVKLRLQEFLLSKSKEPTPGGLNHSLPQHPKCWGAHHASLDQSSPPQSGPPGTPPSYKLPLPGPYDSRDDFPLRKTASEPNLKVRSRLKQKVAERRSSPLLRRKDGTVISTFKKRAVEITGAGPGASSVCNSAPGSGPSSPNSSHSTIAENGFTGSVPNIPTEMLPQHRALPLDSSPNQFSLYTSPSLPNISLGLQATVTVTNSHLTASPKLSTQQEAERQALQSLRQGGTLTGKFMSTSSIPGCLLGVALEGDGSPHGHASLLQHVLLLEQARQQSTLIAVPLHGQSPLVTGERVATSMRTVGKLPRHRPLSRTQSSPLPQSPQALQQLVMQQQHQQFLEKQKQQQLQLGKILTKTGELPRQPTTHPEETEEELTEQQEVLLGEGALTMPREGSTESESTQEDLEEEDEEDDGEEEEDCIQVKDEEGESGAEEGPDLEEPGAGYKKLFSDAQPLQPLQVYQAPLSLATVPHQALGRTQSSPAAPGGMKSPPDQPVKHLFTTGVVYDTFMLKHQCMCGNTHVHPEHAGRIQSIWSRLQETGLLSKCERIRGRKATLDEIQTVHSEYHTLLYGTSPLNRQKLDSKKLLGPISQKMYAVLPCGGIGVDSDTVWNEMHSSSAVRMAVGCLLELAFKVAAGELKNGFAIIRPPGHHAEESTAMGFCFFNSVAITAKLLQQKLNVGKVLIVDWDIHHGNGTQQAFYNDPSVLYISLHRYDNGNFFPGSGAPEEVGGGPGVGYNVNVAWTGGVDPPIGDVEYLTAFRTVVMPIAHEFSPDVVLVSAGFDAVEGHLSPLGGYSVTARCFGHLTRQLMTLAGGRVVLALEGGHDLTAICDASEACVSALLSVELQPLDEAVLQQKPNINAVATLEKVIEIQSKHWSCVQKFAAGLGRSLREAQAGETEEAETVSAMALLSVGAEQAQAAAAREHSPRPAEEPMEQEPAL
Histone deacetylase 9, sequence (Q9UKV0 whole entry): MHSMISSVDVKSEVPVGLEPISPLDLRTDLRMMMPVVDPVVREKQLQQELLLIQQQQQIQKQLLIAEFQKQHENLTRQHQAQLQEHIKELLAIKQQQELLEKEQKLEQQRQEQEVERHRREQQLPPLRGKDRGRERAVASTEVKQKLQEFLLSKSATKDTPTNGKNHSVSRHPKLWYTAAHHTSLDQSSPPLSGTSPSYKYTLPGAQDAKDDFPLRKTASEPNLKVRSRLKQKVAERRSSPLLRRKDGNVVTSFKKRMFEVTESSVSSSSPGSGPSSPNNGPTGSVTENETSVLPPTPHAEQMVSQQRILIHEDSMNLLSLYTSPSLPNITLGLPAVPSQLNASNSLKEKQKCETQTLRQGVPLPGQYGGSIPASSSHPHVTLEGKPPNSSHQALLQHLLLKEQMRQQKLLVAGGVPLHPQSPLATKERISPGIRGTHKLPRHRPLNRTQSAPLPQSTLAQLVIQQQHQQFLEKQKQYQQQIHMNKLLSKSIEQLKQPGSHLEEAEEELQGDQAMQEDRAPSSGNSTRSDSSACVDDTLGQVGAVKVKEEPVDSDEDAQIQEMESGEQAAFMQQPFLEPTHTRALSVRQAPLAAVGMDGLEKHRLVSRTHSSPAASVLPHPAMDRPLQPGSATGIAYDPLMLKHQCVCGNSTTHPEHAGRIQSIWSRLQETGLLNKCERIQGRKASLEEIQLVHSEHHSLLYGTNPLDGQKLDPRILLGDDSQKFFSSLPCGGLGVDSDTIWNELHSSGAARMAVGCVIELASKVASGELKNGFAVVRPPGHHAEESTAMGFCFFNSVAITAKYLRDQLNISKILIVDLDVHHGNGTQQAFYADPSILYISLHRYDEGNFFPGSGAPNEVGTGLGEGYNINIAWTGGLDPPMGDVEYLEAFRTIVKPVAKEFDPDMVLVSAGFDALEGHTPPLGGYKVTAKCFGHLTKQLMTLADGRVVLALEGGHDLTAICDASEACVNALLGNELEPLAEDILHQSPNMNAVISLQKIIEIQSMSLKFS

SMILES | IC50 (COLO 205) | IC50 (Histone deacetylase 1 [4]) | further results
CC/C=C\CCc1nc2cc(/C=C/C(=O)NO)ccc2n1CCNCC | 310 nM | 21 nM | IC50 (A2780): 200 nM; IC50 (HCT-116): 660 nM; IC50 (PC-3): 160 nM; Ki (Histone deacetylase 1 [1]): 7.7 nM; Ki (Histone deacetylase 3): 16 nM; Ki (Histone deacetylase 4): 2.4 nM; Ki (Histone deacetylase 5): 3.1 nM; Ki [2]: 4 nM; Ki (Histone deacetylase 8): 55 nM; Ki (Histone deacetylase 9): 5.7 nM; Ki [3]: 18 nM; Ki (Histone deacetylase 11): 8.8 nM; Ki (Histone deacetylase 2): 8.6 nM
CCCCCc1nc2cc(/C=C/C(=O)NO)ccc2n1CCN(C)CC | 450 nM | 41 nM | 
CCCCc1nc2cc(/C=C/C(=O)NO)ccc2n1CCN(C)CC | 1650 nM |  | 
CC(C)c1nc2cc(/C=C/C(=O)NO)ccc2n1CC(C)(C)CN(C)C | 1730 nM | 308 nM | 
CCCCc1nc2cc(/C=C/C(=O)NO)ccc2n1CCNCC | 880 nM | 77 nM | IC50 (A2780): 760 nM; IC50 (HCT-116): 1110 nM; IC50 (PC-3): 380 nM
CCCCc1nc2cc(/C=C/C(=O)NO)ccc2n1C1CCNC1 (stereo not given) | 16400 nM | 110 nM | 
CC/C=C\CCc1nc2cc(/C=C/C(=O)NO)ccc2n1CC(C)(C)CN(C)C | 620 nM | 53 nM | IC50 (A2780): 370 nM; IC50 (HCT-116): 920 nM; IC50 (PC-3): 380 nM
CCCCCCc1nc2cc(/C=C/C(=O)NO)ccc2n1C1CCNC1 (stereo not given) | 1460 nM | 41 nM | 
CCCCCCCCc1nc2cc(/C=C/C(=O)NO)ccc2n1CCNC | 230 nM | 15 nM | 
CN(C)CC(C)(C)Cn1c(C2CCCCC2)nc2cc(/C=C/C(=O)NO)ccc21 | 2450 nM | 421 nM | 
CCCCc1nc2cc(/C=C/C(=O)NO)ccc2n1CCN(C(C)C)C(C)C | 1870 nM | 335 nM | 
CCCCc1nc2cc(/C=C/C(=O)NO)ccc2n1C1CCNCC1 | 7000 nM |  | 
CCCc1nc2cc(/C=C/C(=O)NO)ccc2n1CCN(CC)CC | 980 nM | 155 nM | 
CCNCCn1c(CC(C)CC(C)(C)C)nc2cc(/C=C/C(=O)NO)ccc21 (stereo not given) | 140 nM | 23 nM | IC50 (A2780): 140 nM; IC50 (HCT-116): 270 nM; IC50 (PC-3): 100 nM
CCCCc1nc2cc(/C=C/C(=O)NO)ccc2n1C1CCN(C)C1 (stereo not given) | 1090 nM | 125 nM | 
CCCCc1nc2cc(/C=C/C(=O)NO)ccc2n1CCCNC(C)C | 2890 nM | 165 nM | 
CN(C)CCn1c(C2CC2c2ccccc2)nc2cc(/C=C/C(=O)NO)ccc21 (stereo not given) | 690 nM | 175 nM | 
CCCCCc1nc2cc(/C=C/C(=O)NO)ccc2n1C1CCCN(C)C1 (stereo not given) | 2100 nM | 158 nM | 
CCCCCCc1nc2cc(/C=C/C(=O)NO)ccc2n1CCN(CC)CC | 420 nM | 45 nM | 

SMILES | IC50 (COLO 205) | IC50 (Histone deacetylase 1 [4]) | further results
CCCCCCc1nc2cc(/C=C/C(=O)NO)ccc2n1C1CCCNC1 (stereo not given) | 1340 nM | 105 nM | 
CCCCc1nc2cc(/C=C/C(=O)NO)ccc2n1CCC(C)C | 6020 nM | 2490 nM | 
CCCCc1nc2cc(/C=C/C(=O)NO)ccc2n1CCN(C)C | 650 nM | 90 nM | 
CCCCc1nc2cc(/C=C/C(=O)NO)ccc2n1CC(C)(C)CN(C)C | 2230 nM | 150 nM | 
CCN(CC)CCn1c(CC(C)(C)C)nc2cc(/C=C/C(=O)NO)ccc21 | 1190 nM | 135 nM | 
CCN(CC)CCn1c(C2CC2c2ccccc2)nc2cc(/C=C/C(=O)NO)ccc21 (trans isomer) | 630 nM | 169 nM | 
CCN(CC)CCn1c(CC2CC3CCC2C3)nc2cc(/C=C/C(=O)NO)ccc21 (stereo not given) | 390 nM | 32 nM | IC50 (A2780): 210 nM; IC50 (HCT-116): 330 nM; IC50 (PC-3): 530 nM
CCCCCc1nc2cc(/C=C/C(=O)NO)ccc2n1CCNCC | 420 nM | 27 nM | 
CCN(CC)CCn1c(CCc2ccccc2)nc2cc(/C=C/C(=O)NO)ccc21 |  |  | half-life [5]: ≥ 30 min; half-life [6]: 5 min
CCCCCCCCc1nc2cc(/C=C/C(=O)NO)ccc2n1CCN | 540 nM | 22 nM | 
CCCCCc1nc2cc(/C=C/C(=O)NO)ccc2n1CCNC | 950 nM | 41 nM | 
CC(C)Cc1nc2cc(/C=C/C(=O)NO)ccc2n1CC(C)(C)CN(C)C | 2690 nM | 175 nM | 
CCCCc1nc2cc(/C=C/C(=O)NO)ccc2n1C1CCCNC1 (stereo not given) | 4870 nM | 190 nM | 
CC(Cc1nc2cc(/C=C/C(=O)NO)ccc2n1CC(C)(C)CN(C)C)CC(C)(C)C (stereo not given) | 150 nM | 37 nM | IC50 (A2780): 230 nM; IC50 (HCT-116): 410 nM; IC50 (PC-3): 310 nM
CCCCc1nc2cc(/C=C/C(=O)NO)ccc2n1CCN(C)C(C)C | 540 nM | 45 nM | 
NCCn1c(C2CC2c2ccccc2)nc2cc(/C=C/C(=O)NO)ccc21 (stereo not given) | 4530 nM | 84 nM | 
CCN(CC)CCn1c(CC(C)C)nc2cc(/C=C/C(=O)NO)ccc21 | 810 nM | 92 nM | IC50 (A2780): 1240 nM; IC50 (HCT-116): 1300 nM; IC50 (PC-3): 950 nM
CCCCCCc1nc2cc(/C=C/C(=O)NO)ccc2n1CCNC | 550 nM | 29 nM | 
CCN(CC)CCc1nc2cc(/C=C/C(=O)NO)ccc2n1CCC(C)C | 6810 nM | 575 nM | 
